#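 Values below derive from 48-hour exposures of cells grown in 96-well plates, with endpoints linearly interpolated between the two concentrations bracketing the appropriate inhibition level. At the GI50, growth is halved. TGI: concentration producing complete growth inhibition.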
# Columns and labels:
# Assay in all cases: NCI-60 cell line screen, 48 h
# A549 NSCLC = test system: A549 NSCLC
# ACHN renal = test system: ACHN renal
# BT-549 breast = test system: BT-549 breast
# CAKI-1 renal = test system: CAKI-1 renal
# CCRF-CEM leukemia = test system: CCRF-CEM leukemia
# COLO 205 colon = test system: COLO 205 colon
# DU-145 prostate = test system: DU-145 prostate
# EKVX NSCLC = test system: EKVX NSCLC
# HCT-116 colon = test system: HCT-116 colon
# HCT-15 colon = test system: HCT-15 colon
# HL-60(TB) leukemia = test system: HL-60(TB) leukemia
# HOP-62 NSCLC = test system: HOP-62 NSCLC
# HS 578T breast = test system: HS 578T breast
# HT29 colon = test system: HT29 colon
# IGROV1 ovarian = test system: IGROV1 ovarian
# K-562 leukemia = test system: K-562 leukemia
# KM12 colon = test system: KM12 colon
# LOX IMVI melanoma = test system: LOX IMVI melanoma
# M14 melanoma = test system: M14 melanoma
# MALME-3M melanoma = test system: MALME-3M melanoma
# MCF7 breast = test system: MCF7 breast
# MDA-MB-231 breast = test system: MDA-MB-231 breast
# MDA-MB-435 = test system: MDA-MB-435
# MDA-N = test system: MDA-N
# MOLT-4 leukemia = test system: MOLT-4 leukemia
# NCI-H23 lung = test system: NCI-H23 lung
# NCI-H460 lung = test system: NCI-H460 lung
# NCI/ADR-RES ovarian = test system: NCI/ADR-RES ovarian
# OVCAR-3 ovarian = test system: OVCAR-3 ovarian
# OVCAR-4 ovarian = test system: OVCAR-4 ovarian
# OVCAR-5 ovarian = test system: OVCAR-5 ovarian
# OVCAR-8 ovarian = test system: OVCAR-8 ovarian
# PC-3 prostate = test system: PC-3 prostate
# RPMI-8226 leukemia = test system: RPMI-8226 leukemia
# RXF 393 renal = test system: RXF 393 renal
# SF-268 CNS = test system: SF-268 CNS
# SF-295 CNS = test system: SF-295 CNS
# SF-539 CNS = test system: SF-539 CNS
# SK-MEL-28 melanoma = test system: SK-MEL-28 melanoma
# SK-MEL-5 melanoma = test system: SK-MEL-5 melanoma
# SK-OV-3 ovarian = test system: SK-OV-3 ovarian
# SN12C renal = test system: SN12C renal
# SNB-19 CNS = test system: SNB-19 CNS
# SNB-75 CNS = test system: SNB-75 CNS
# SR leukemia = test system: SR leukemia
# SW-620 colon = test system: SW-620 colon
# T-47D breast = test system: T-47D breast
# TK-10 renal = test system: TK-10 renal
# U251 CNS = test system: U251 CNS
# UACC-257 melanoma = test system: UACC-257 melanoma
# UACC-62 melanoma = test system: UACC-62 melanoma
# UO-31 renal = test system: UO-31 renal
smiles,measurement,setting,value
COc1cc(/C=C2/N=C(c3ccccc3)N(C3=NNC4(C(=O)N3)c3ccccc3-c3ccccc34)NC2=O)ccc1O,GI50,A549 NSCLC,15 µg/mL
same,TGI,A549 NSCLC,15 µg/mL
same,GI50,ACHN renal,36.3 µg/mL
same,TGI,ACHN renal,123 µg/mL
same,GI50,BT-549 breast,25.9 µg/mL
same,TGI,BT-549 breast,47.5 µg/mL
same,GI50,CAKI-1 renal,22.4 µg/mL
same,TGI,CAKI-1 renal,75.1 µg/mL
same,GI50,CCRF-CEM leukemia,46.3 µg/mL
same,TGI,CCRF-CEM leukemia,> 150 µg/mL
same,GI50,COLO 205 colon,55.2 µg/mL
same,TGI,COLO 205 colon,> 150 µg/mL
same,GI50,DU-145 prostate,31.3 µg/mL
same,TGI,DU-145 prostate,63.6 µg/mL
same,GI50,EKVX NSCLC,15 µg/mL
same,TGI,EKVX NSCLC,15 µg/mL
same,GI50,HCT-116 colon,26.1 µg/mL
same,TGI,HCT-116 colon,47.3 µg/mL
same,GI50,HCT-15 colon,46.7 µg/mL
same,TGI,HCT-15 colon,> 150 µg/mL
same,GI50,HL-60(TB) leukemia,51.2 µg/mL
same,TGI,HL-60(TB) leukemia,> 150 µg/mL
same,GI50,HOP-62 NSCLC,23.4 µg/mL
same,TGI,HOP-62 NSCLC,56.2 µg/mL
same,GI50,HS 578T breast,19.8 µg/mL
same,TGI,HS 578T breast,42.5 µg/mL
same,GI50,HT29 colon,27.7 µg/mL
same,TGI,HT29 colon,49.1 µg/mL
same,GI50,IGROV1 ovarian,30.4 µg/mL
same,TGI,IGROV1 ovarian,63.3 µg/mL
same,GI50,K-562 leukemia,48.6 µg/mL
same,TGI,K-562 leukemia,> 150 µg/mL
same,GI50,KM12 colon,22.7 µg/mL
same,TGI,KM12 colon,42.9 µg/mL
same,GI50,LOX IMVI melanoma,32.3 µg/mL
same,TGI,LOX IMVI melanoma,66.8 µg/mL
same,GI50,M14 melanoma,34.7 µg/mL
same,TGI,M14 melanoma,105 µg/mL
same,GI50,MALME-3M melanoma,26.5 µg/mL
same,TGI,MALME-3M melanoma,57 µg/mL
same,GI50,MCF7 breast,33.2 µg/mL
same,TGI,MCF7 breast,77.1 µg/mL
same,GI50,MDA-MB-231 breast,19.3 µg/mL
same,TGI,MDA-MB-231 breast,44.5 µg/mL
same,GI50,MDA-MB-435,26.7 µg/mL
same,TGI,MDA-MB-435,54.4 µg/mL
same,GI50,MDA-N,31.1 µg/mL
same,TGI,MDA-N,65 µg/mL
same,GI50,MOLT-4 leukemia,35.7 µg/mL
same,TGI,MOLT-4 leukemia,123 µg/mL
same,GI50,NCI-H23 lung,15 µg/mL
same,TGI,NCI-H23 lung,15 µg/mL
same,GI50,NCI-H460 lung,28 µg/mL
same,TGI,NCI-H460 lung,49.1 µg/mL
same,GI50,NCI/ADR-RES ovarian,45.8 µg/mL
same,TGI,NCI/ADR-RES ovarian,> 150 µg/mL
same,GI50,OVCAR-3 ovarian,24.8 µg/mL
same,TGI,OVCAR-3 ovarian,53.5 µg/mL
same,GI50,OVCAR-4 ovarian,27.4 µg/mL
same,TGI,OVCAR-4 ovarian,62.1 µg/mL
same,GI50,OVCAR-5 ovarian,44.6 µg/mL
same,TGI,OVCAR-5 ovarian,> 150 µg/mL
same,GI50,OVCAR-8 ovarian,24 µg/mL
same,TGI,OVCAR-8 ovarian,45.5 µg/mL
same,GI50,PC-3 prostate,29.5 µg/mL
same,TGI,PC-3 prostate,79.6 µg/mL
same,GI50,RPMI-8226 leukemia,50.2 µg/mL
same,TGI,RPMI-8226 leukemia,> 150 µg/mL
same,GI50,RXF 393 renal,26.7 µg/mL
same,TGI,RXF 393 renal,48.6 µg/mL
same,GI50,SF-268 CNS,27.5 µg/mL
same,TGI,SF-268 CNS,66.7 µg/mL
same,GI50,SF-295 CNS,19.7 µg/mL
same,TGI,SF-295 CNS,42.5 µg/mL
same,GI50,SF-539 CNS,28.7 µg/mL
same,TGI,SF-539 CNS,59.3 µg/mL
same,GI50,SK-MEL-28 melanoma,31.3 µg/mL
same,TGI,SK-MEL-28 melanoma,60.4 µg/mL
same,GI50,SK-MEL-5 melanoma,20.3 µg/mL
same,TGI,SK-MEL-5 melanoma,39.6 µg/mL
same,GI50,SK-OV-3 ovarian,19 µg/mL
same,TGI,SK-OV-3 ovarian,37.8 µg/mL
same,GI50,SN12C renal,25.6 µg/mL
same,TGI,SN12C renal,56.8 µg/mL
same,GI50,SNB-19 CNS,34.6 µg/mL
same,TGI,SNB-19 CNS,87.3 µg/mL
same,GI50,SNB-75 CNS,23.4 µg/mL
same,TGI,SNB-75 CNS,45.8 µg/mL
same,GI50,SR leukemia,48.3 µg/mL
same,TGI,SR leukemia,> 150 µg/mL
same,GI50,SW-620 colon,31.1 µg/mL
same,TGI,SW-620 colon,73.6 µg/mL
same,GI50,T-47D breast,17 µg/mL
same,TGI,T-47D breast,65 µg/mL
same,GI50,TK-10 renal,35.8 µg/mL
same,TGI,TK-10 renal,78.2 µg/mL
same,GI50,U251 CNS,24.5 µg/mL
same,TGI,U251 CNS,44.8 µg/mL
same,GI50,UACC-257 melanoma,27.2 µg/mL
same,TGI,UACC-257 melanoma,51.8 µg/mL
same,GI50,UACC-62 melanoma,27.4 µg/mL
same,TGI,UACC-62 melanoma,48.3 µg/mL
same,GI50,UO-31 renal,33.4 µg/mL
same,TGI,UO-31 renal,111 µg/mL

# Source: PubChem BioAssay (NCI)
